Measured values published in paper PMC11217349, “Development of Nurr1 agonists from amodiaquine by scaffold hopping and fragment growing” (Communications Chemistry, 2024).
≈ marks a conversion by molar mass, not a printed value. Where “and” joins values, the source holds several entries; their conditions need not be identical. Identical values can stand only once. Entries after “also recorded” stand apart in the source; their conditions may differ.

Legend:
HEK293T cells = experiment: WST-8 cytotoxicity assay, HEK293T; assay type: cell-based, human; details: for toxicity (WST-8): HEK293T cells, 24 h
Description: Each sample was prepared in four biologically independent repeats. After incubation for 24 h, the medium was refreshed and 10% water-soluble tetrazolinum salt (Cell Counting Kit-8, MedChemExpress) was added to assess metabolic activity. After 4 h, absorbance was measured at 450 nm using a Tecan Spark Cyto instrument (Tecan).

[1] = tested on: human midbrain organoids from wildtype iPSC (isogenic control); experiment: Midbrain organoid model, isogenic control; assay type: cell-based; details: immunostaining, fixed area
Nurr1 LBD = biological target: T1, Nurr1 LBD (Homo sapiens, UniProt P43354); experiment: Isothermal titration calorimetry (ITC); assay type: binding; details: 25 °C
T1 construct: Nurr1 LBD protein (5–30 µM, expressed as described previously[21]); made in house
T1 sequence (P43354 360-595 limits assumed): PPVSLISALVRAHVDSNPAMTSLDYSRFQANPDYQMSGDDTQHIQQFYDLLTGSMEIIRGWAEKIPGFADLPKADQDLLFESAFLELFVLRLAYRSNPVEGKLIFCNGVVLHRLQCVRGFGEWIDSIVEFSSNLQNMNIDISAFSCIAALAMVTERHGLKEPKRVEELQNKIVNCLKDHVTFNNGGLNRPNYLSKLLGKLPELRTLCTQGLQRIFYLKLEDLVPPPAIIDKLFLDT
Description: ITC experiments were conducted on an Affinity ITC instrument (TA Instruments, New Castle, DE) at 25 °C with a stirring rate of 75 rpm. Nurr1 LBD protein (5–30 µM, expressed as described previously[21]) in buffer (20 mM Tris pH 7.5, 100 mM NaCl, 5% glycerol) containing 1–4% DMSO was titrated with the test compounds (30–150 μM in the same buffer containing 1-4% DMSO) in 26 injections (1 × 1 µL, 25 × 3-4 μL) with an injection interval of 120-150 s. As control experiments, the test compounds were titrated to the buffer, and the buffer was titrated to the Nurr1 LBD protein under otherwise identical conditions. Results were analyzed using NanoAnalyze software (version 3.11.0, TA Instruments, New Castle, DE) with independent binding models.

[2] = biological target: T2, human full-length Nurr1 monomer (NBRE) (Homo sapiens, UniProt P43354); experiment: Full-length Nurr1 reporter gene assay (NBRE); assay type: cell-based; details: full-length human Nurr1 monomer, HEK293T
T2 construct: The full-length human nuclear receptor Nurr1 (pcDNA3.1-hNurr1-NE; Addgene plasmid #102363); host or cells: HEK293T
T2 sequence (P43354 whole entry): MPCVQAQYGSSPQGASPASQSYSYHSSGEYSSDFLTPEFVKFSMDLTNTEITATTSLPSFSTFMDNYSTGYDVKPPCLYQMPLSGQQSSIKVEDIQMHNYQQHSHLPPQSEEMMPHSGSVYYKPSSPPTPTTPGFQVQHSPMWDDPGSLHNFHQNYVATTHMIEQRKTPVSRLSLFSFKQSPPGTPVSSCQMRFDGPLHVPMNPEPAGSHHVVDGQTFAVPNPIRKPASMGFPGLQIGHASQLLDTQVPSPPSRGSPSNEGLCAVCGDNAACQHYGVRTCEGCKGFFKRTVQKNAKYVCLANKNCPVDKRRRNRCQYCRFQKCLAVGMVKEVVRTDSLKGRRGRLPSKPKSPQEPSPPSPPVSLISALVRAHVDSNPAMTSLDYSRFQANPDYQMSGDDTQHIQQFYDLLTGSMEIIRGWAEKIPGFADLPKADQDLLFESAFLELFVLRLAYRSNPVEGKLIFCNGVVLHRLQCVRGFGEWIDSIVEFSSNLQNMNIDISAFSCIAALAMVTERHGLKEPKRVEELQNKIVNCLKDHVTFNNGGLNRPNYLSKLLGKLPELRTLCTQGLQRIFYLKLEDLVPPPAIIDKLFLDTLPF
Source text: Activation of full-length human Nurr1 was studied in transiently transfected HEK293T cells using the reporter plasmids pFR-Luc-NBRE[14], pFR-Luc-POMC[14] or pFR-Luc-DR5[14] each containing one copy of the respective human Nurr1 response element NBRE Nl3, NurRE, or DR5. The full-length human nuclear receptor Nurr1 (pcDNA3.1-hNurr1-NE; Addgene plasmid #102363) and, for DR5, RXRα (pSG5-hRXR)[57] were overexpressed. pRL-SV40 (Promega) was used for the normalization of transfection efficacy and to observe test compound toxicity. […] After 24 h, the medium was changed to Opti-MEM without supplements, and cells were transiently transfected using Lipofectamine LTX reagent (Invitrogen) according to the manufacturer’s protocol. Five hours after transfection, cells were incubated with the test compounds in Opti-MEM supplemented with penicillin (100 U/mL), streptomycin (100 μg/mL) and 0.1% DMSO for 16 h before luciferase activity was measured using the Dual-Glo Luciferase Assay System (Promega) according to the manufacturer’s protocol on a Tecan Spark luminometer (Tecan Deutschland GmbH). Firefly luminescence was divided by Renilla luminescence and multiplied by 1000 resulting in relative light units (RLU) to normalize for transfection efficiency and cell growth. Fold activation was obtained by dividing the mean RLU of the test compound by the mean RLU of the untreated control. All samples were tested in at least three biologically independent experiments in duplicates. For dose-response curve fitting and calculation of EC50 values, the equation “[Agonist] vs. response -- Variable slope (four parameters)” was used in GraphPad Prism (version 7.00, GraphPad Software).

Nur77 = biological target: T3, Nur77 (Homo sapiens, UniProt P22736); experiment: Gal4-Nur77 hybrid reporter gene assay; assay type: cell-based; details: HEK293T
T3 construct: chimeric receptors composed of the Gal4-DBD and the hinge region and LBD; expressed in transfected cells; host or cells: HEK293T
T3 sequence (P22736 360-595 limits assumed): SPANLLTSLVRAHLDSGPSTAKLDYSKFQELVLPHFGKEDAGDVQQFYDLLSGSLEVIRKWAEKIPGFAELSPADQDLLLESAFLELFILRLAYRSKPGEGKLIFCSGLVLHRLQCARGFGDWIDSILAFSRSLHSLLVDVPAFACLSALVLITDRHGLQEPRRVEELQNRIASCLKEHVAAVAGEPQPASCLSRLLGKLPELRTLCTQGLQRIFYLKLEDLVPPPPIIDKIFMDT
Description: Nurr1 modulation was determined in a Gal4 hybrid reporter gene assay in HEK293T cells (German Collection of Microorganisms and Cell Culture GmbH, DSMZ) using pFR-Luc (Stratagene, La Jolla, CA, USA; reporter), pRL-SV40 (Promega, Madison, WI, USA; internal control) and pFA-CMV-hNurr1-LBD[14], coding for the hinge region and ligand binding domain of the canonical isoform of human Nurr1. […] After 24 h, the medium was changed to Opti-MEM without supplements, and cells were transiently transfected using Lipofectamine LTX reagent (Invitrogen, Carlsbad, CA, USA) according to the manufacturer’s protocol. Five hours after transfection, cells were incubated with the test compounds in Opti-MEM supplemented with penicillin (100 U/mL), streptomycin (100 μg/mL), and 0.1% DMSO for 16 h before luciferase activity was measured using the Dual-Glo Luciferase Assay System (Promega) according to the manufacturer’s protocol on a Tecan Spark luminometer (Tecan Deutschland GmbH, Crailsheim, Germany). Firefly luminescence was divided by Renilla luminescence and multiplied by 1000 resulting in relative light units (RLU) to normalize for transfection efficiency and cell growth. Fold activation was obtained by dividing the mean RLU of the test compound by the mean RLU of the untreated control. All samples were tested in at least three biologically independent experiments in duplicates. For dose-response curve fitting and calculation of EC50 values, the equation “[Agonist] vs. response -- Variable slope (four parameters)” was used in GraphPad Prism (version 7.00, GraphPad Software, La Jolla, CA, USA). Selectivity profiling was performed with identical procedures using pFA-CMV-Nur77-LBD[14], pFA-CMV-NOR-1-LBD[14], pFA-CMV-THRα-LBD[51], pFA-CMV-RARα-LBD[52], pFA-CMV-PPARα-LBD[53], pFA-CMV-PPARγ-LBD[53], pFA-CMV-PPARδ-LBD[53], pFA-CMV-LXRα-LBD[54], pFA-CMV-FXR-LBD[55] and pFA-CMV-hRXRα-LBD[56].

Aqueous solubility = assay type: physicochemical; details: water, 25 °C, read-out: aq. solubility
Description: The mixture was agitated in a VWR Thermal Shake lite (VWR International GmbH, Darmstadt, Germany) for 24 h at 600 rpm and a constant temperature of 25 °C. The supersaturated mixtures were subsequently centrifuged at 23.300 rpm for 15 min (25 °C). Part of the supernatant was taken off for quantification by UV absorbance at 312 nm with external calibration. The external calibration samples contained 1% DMSO and the test samples were spiked with DMSO to 1% concentration right before the measurement. Absorbance was measured with a Tecan Spark luminometer (Tecan Deutschland GmbH, Crailsheim, Germany). The solubility test was repeated in three independent experiments.

Cc1nc2c(Cl)cccn2c1NC(=O)c1ccc(-c2ccccc2)[nH]1 [Compound 29, N-(8-Chloro-2-methylimidazo[1,2-a]pyridin-3-yl)-5-phenyl-1H-pyrrole-2-carboxamide]
toxicity (WST-8) (HEK293T cells): inactive (10 µM) | TH positive cells [1]: 44 and 37 and 31 and 38 | Kd (Nurr1 LBD) (Nurr1 LBD): no binding^b | EC50(NBRE) [2]: no activation (10 µM) | EC50(Nur77) (Nur77): no activation (10 µM) | solubility at 24 h (Aqueous solubility): 4.1 µg/mL (≈ 11.7 µM)

Cc1nc2c(Cl)cccn2c1NC(=O)c1ccc(-c2ccc(N(C)C)cc2)o1 [Compound 36, N-(8-Chloro-2-methylimidazo[1,2-a]pyridin-3-yl)-5-(4-(dimethylamino)phenyl)furan-2-carboxamide]
toxicity (WST-8) (HEK293T cells): no toxic effect; also recorded: non-toxic; also recorded: inactive (10 µM) | rel. absorbance (450 nm) (HEK293T cells; HEK293T, 10 µM, WST-8, vs DMSO ctrl): 85% and 95% and 80% | TH positive cells [1]: 47 and 50 and 45 and 41 | Kd (Nurr1 LBD): 170 nM | EC50(NBRE) [2]: no activation (1 µM) | EC50 (Nur77): 330 ± 40 nM | solubility at 24 h (Aqueous solubility): 6.8 µg/mL (≈ 17.2 µM)
